Experimental data published in patent US11065266B2, “Method of treating melanoma using an inhibitor of an atypical protein kinase C” (UNIVERSITY OF SOUTH FLORIDA, priority 2016, dated 2021).

Columns and labels:
Format in all cases: cell-based, human
[1] = test system: PCS-200-013 normal melanocyte; assay: Inhibitor dose response curves (cell counts after 3 days); settings: for effect on cell proliferation of normal melanocytes: dose curve
Procedure: (§1) Dose curves (inhibitor concentrations vs cell population after 3 days) for ICA-1, ACPD, DND and ζ-Stat were obtained for all 3 cell lines as follows. PCS-200-013, SK-MEL-2 and MeWo cells (4×10^4) were cultured in 25 cm^2 flasks and treated with either equal volume of sterile water (vehicle control). Cells were treated every 24 h during 3 day incubation period and cells were then lifted using Trypsin-EDTA solution (1.5 mL/flask) and neutralized with the equal volume of media. Subsequently, live cells were counted using the Scepter, an automated cell counter from Millipore (Billerica, Mass.). The cell growth inhibition for all inhibitors for the two malignant cell lines (SK-MEL-2 and MeWo) were quantified by counting the viable cells at 24 hour intervals. Cell counts obtained from Scepter was compared with the counts obtained from the Cellometer Vision from Nexcelom Bioscience (Lawrence, Mass.).
(§2) Dose curves for ACPD and DNDA were obtained to investigate the effect on cell proliferation of normal and malignant cell lines over a wide range of concentrations. […] ACPD decreased proliferation by 20% for 1.5 μM (p≤0.01), 48% for 2.5 μM (p≤0.01) and 51% for 3.5 μM (p≤0.001)(FIG. 5B). DNDA decreased by 17% for 500 nM (p≤0.01), 24% for 1.5 μM(p≤0.01), 52%) for 2.5 µM (p≤0.01) and 57 for 3.5 μM (p≤0.01)(FIG. 5C) in SK-MEL-2 cells. ACPD decreased proliferation by 28% for 500 nM (p≤0.01), 41% for 1.5 μM (p≤0.01), 54% for 2.5 µM (p≤0. 01) and 58% for 3.5 μM (p≤0.01) (FIG. 5D). DNDA decreased proliferation by 37% for 500 nM (p≤0.01), 41% for 1.5 μM (p≤0.01), 46% for 2.5 μM (p≤0.01) and 48% for 3.5 μM (p≤0.01) (FIG. 5E) in the MeWo cells.

SK-MEL-2 cells = assay: as above
Procedure: as §1, §2

MeWo cells [2] = assay: as above
Procedure: as §1, §2

MeWo cells [3] = assay: Wound healing assay; settings: 2.5 μM, day 3 or 4, p≤0.01
Procedure: For the wound-healing assay, melanoma cells were seeded into 35 mm dishes in 6-well-plates. After the cells had reached 100% confluency, the wound-healing assay was performed with a sterile pipette tip (1-10 μL pipette tip) by making a scratch through the confluent monolayer. Subsequently, the cells were washed with DPBS and fresh medium (EMEM) was added to each well and the desired amount of inhibitor was added in order to achieve the final concentrations of 50 nM, 100 nM, 200 nM, 500 nM and 1 μM against the control. Cells were cultured for 48 h. In 24 hours intervals, pictures of wound closure were taken and the percentage of wound closure was calculated in three randomly chosen fields.
A wound healing assay was performed to investigate the effect of ACPD and DNDA on malignant melanoma cell migration in vitro. Wound healing assay is commonly used to investigate in vitro migration of cancer cells. For the wound-healing assay, melanoma cells were seeded into 35 mm dishes in 6-well-plates. […] The percentage of wound closure was calculated after 3 or 4 days.
In one set of experiments, cells were cultured for 48 h. In 24 hours intervals, pictures of wound closure were taken and the percentage of wound closure was calculated in three randomly chosen fields. […] The areas of the scratch (wound) were calculated and compared to determine the statistical significance (FIG. 8C).

Compound	effect on cell proliferation of normal melanocytes [1]	decrease of proliferation (SK-MEL-2 cells; 1.5 μM) [%]	decrease of proliferation (SK-MEL-2 cells; 2.5 μM) [%]	decrease of proliferation (SK-MEL-2 cells; 3.5 μM) [%]	decrease of proliferation (MeWo cells [2]; 500 nM) [%]	decrease of proliferation (MeWo cells [2]; 1.5 μM) [%]	decrease of proliferation (MeWo cells [2]; 2.5 μM) [%]	decrease of proliferation (MeWo cells [2]; 3.5 μM) [%]	wound closure (MeWo cells [3])	inhibition of cell proliferation of normal melanocytes ([1]; 3.5 μM) [%]	decrease of proliferation (SK-MEL-2 cells; 500 nM) [%]
CC(=O)C1=C(O)CCC1=O [ACPD, 2-acetyl-1,3-cyclopentanedione]	did not show a significant effect	20	48	51	28	41	54	58	significantly reduce the wound closure		
Nc1c(S(=O)(=O)O)cc2cc(S(=O)(=O)O)ccc2c1N [DNDA, 3,4-diamino-2,7-naphthalenedisulfonic acid]	did not show a significant effect	24	52	57	37	41	46	48	significantly reduce the wound closure	13.5	17
